Test results reported in patent US20040038861A1, “Methods and compositions for normalizing lipid levels in mammalian tissues” (priority 2001, published 2004).

Columns and labels:
ramp 1/C1ins− receptor = molecular target: T1, ramp 1/C1ins− receptor (Mus musculus, UniProt Q60755+Q9WTJ5); test: cAMP production in L6 myoblasts co-transfected with ramp 1 and C1ins−; format: cell-based, murine; conditions: 15 min, FIG. 10
T1 construct: expressed in transfected cells; host or cells: L6 myoblasts (ATCC), transient co-transfection of pcDNA3.1 plasmids
T1 sequence (Q60755 42-496 isoform Q60755-2 limits assumed): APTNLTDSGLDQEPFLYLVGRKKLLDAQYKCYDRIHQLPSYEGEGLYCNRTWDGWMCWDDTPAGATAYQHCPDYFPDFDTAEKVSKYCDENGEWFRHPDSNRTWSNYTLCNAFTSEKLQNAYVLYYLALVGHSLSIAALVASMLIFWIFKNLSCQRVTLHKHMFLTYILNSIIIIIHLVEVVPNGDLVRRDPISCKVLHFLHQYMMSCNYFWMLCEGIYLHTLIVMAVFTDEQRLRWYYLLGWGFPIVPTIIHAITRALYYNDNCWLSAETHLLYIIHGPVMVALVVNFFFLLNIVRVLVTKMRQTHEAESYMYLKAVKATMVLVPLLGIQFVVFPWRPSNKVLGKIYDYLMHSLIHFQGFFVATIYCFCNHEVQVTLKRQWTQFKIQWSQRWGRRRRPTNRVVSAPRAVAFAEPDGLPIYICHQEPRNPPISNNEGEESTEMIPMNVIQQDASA
T1 sequence (Q9WTJ5 27-148 partner): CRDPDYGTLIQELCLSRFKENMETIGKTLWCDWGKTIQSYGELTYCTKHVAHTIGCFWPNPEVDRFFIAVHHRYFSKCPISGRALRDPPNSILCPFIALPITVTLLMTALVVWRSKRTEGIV
Experimental: Transfection of L6 myoblasts and cos-7 cells, and analysis of radioligand binding. L6 myoblasts and cos-7 cells were obtained from ATCC. Both cell lines were cultered in Dulbecco's modified Eagle's medium (DMEM; Gibco/BRL, high glucose) supplemented with 10% fetal calf serum (Gibco/BRL, Gaithersburg, Md.), L-glutamine (2 mM), penicillin (100 U/ml; Sigma), streptomycin ([…]; Sigma), saline (0.85%), under 5% CO2/95% air at 37° C. The day before transfection, cells were trypsinised and seeded into six-well plates at a density of 2.9×10^5 cells/well in the same medium. For transfection, cells were incubated with a mixture comprising 1 μg each of Qiagen-purified (Qiagen, Valencia, Calif.) plasmids containing C1ins− with either ramp 1 or ramp 3, and Fugene reagent (6 μl; Boehringer Mannheim) in Opti-Mem I medium (Gibco/BRL). The complex was added with serum to cells, which were incubated for a further 48 h.
Determination of cAMP in cultured cells and soleus muscle strips. cAMP concentration was measured in cells seeded in six-well plates and transfected as described. Following aspiration, cells were incubated for 15 min at room temperature in the presence of stated concentrations of ligands in binding buffer. Isobutylmethylxanthine (Sigma) was added to a final concentration of 0.5 mM together with stated concentrations of peptides, and the reaction terminated by aspiration. Cells were washed with 0.5 ml ice-cold TE buffer (10 mM Tris/HCl, 1 mM EDTA, pH 7.6) and rapidly transferred to eppendorf tubes in 1 ml of the same buffer, then boiled for 5 min. Following centrifugation at 12,000 g for 5 min at 4° C., then cooling on ice, duplicate 50 μl aliquots were analyzed for cAMP using an assay system based on competitive binding (Arnersham Pharmacia) according to the manufacturer's instructions.

soleus muscle [1] = test: cAMP content of isolated soleus muscle from normal fed rats; format: cell-based, rat
soleus muscle [2] = test: Total glycogen content in isolated incubated soleus muscle; format: cell-based, rat; conditions: for total glycogen content: 10 nM peptide, 2 h; for EC50: isolated rat soleus muscle
Experimental: (§1) Soleus muscle preparation. All experiments were performed according to protocols approved by the Institutional Animal Ethics Committee. 5-6 week-old male Wistar rats (160 g) were kept on a 12:12-h light/dark cycle, and fed and watered ad libitum. Animals were anaesthetised with 50 mg/kg Nembutal (pentobarbitone sodium), then sacrificed by cervical dislocation. Soleus muscles were dissected under oxygenated KHB (118 mM NaCl, 4.75 mM KCl, 1.2 mM MgSO4, 24.8 mM NaHCO3, 1.2 mM KH2PO4, 2.54 mM CaCl2, 10 mM glucose, pH 7.4) and teased into halves, then incubated as described below.
Total glycogen content was measured in muscle strips by lyophilization followed by hydrolysis of glycogen to D-glucose with amyloglucosidase (Sigma) 20 U/100 ml in 0.2 M sodium acetate/acetic acid buffer, pH 4.8, and expressed as μmol ‘glucosyl’ units/g dry muscle weight. Free glucose in supernatant solutions was measured with a glucose/lactate analyzer (YSI 2300STAT, Yellow Springs Corporation) using D-glucose oxidase immobilized enzyme chemistry.
(§2) Data analysis. One way ANOVA, Dunnett's Multiple Comparisons Test, and unpaired Student's t-tests were used to calculate the statistical significance of differences, as appropriate. Dose-response curves were fitted to a sigmoidal dose-response algorithm, as follows: Y=minimum+(maximum−minimum)/([…] log ^(EC50^−X), for 2-DOG-uptake; and by a four parameter logistic model, Y=minimum+(maximum−minimum)/(1+10 log ^(EC50^−X)Hill-Coefficient) for total glycogen and [^14C]glucose incorporation. Calculations were performed using Prism v2.0 (GraphPad Software, San Diego, Calif.) to derive values for half-maximal effective concentration (EC50). Displacement curves derived for competition of bound radioligand with cold ligand in transfected cells were calculated according to a one site competition fit using Prism v2.0.

soleus muscle [3] = test: Incorporation of D[14C(U)]glucose into glycogen in isolated incubated soleus muscle; format: cell-based, rat; conditions: for rate of D[14C(U)]glucose incorporation into glycogen: 10 nM peptide, 2 h; for EC50: isolated rat soleus muscle
Experimental: as §1
Measurement of glycogen metabolism in isolated, incubated soleus muscle. […]. Glycogen was precipitated overnight at −20° C. with 96% ethanol (1.2 ml), followed by centrifugation at 8,000 g (15 min, 4° C.). Pellets were washed twice with the same amount of ethanol then dissolved in water (0.6 ml). Aliquots (0.3 ml) were analyzed for D[^14C(U)] glucose content by liquid scintillation spectrometry.
as §2

[4] = absence of insulin, basal 90.8±3.7
[5] = insulin 23.7 nM, insulin alone 138±4.8
[6] = absence of insulin, control 4.8±0.3
[7] = maximal insulin, control 27.6±1.4

Row | Substance | cAMP production in co-transfected myoblasts (ramp 1/C1ins− receptor) | maximal increase in cAMP content (soleus muscle [1]; 10 nM or 100 nM amylin, absence or presence of insulin) | effect of picomolar concentrations on muscle cAMP levels (soleus muscle [1]; FIG. 13C) | total glycogen content (soleus muscle [2]; [4]) [μmol/g dry-wt muscle/h] | total glycogen content (soleus muscle [2]; [5]) [μmol/g dry-wt muscle/h] | EC50 (soleus muscle [2]; absence of insulin) [nM] | EC50 (soleus muscle [2]; human insulin 23.7 nM) [nM] | rate of D[14C(U)]glucose incorporation into glycogen (soleus muscle [3]; [6]) [μmol/g dry-wt muscle/h] | rate of D[14C(U)]glucose incorporation into glycogen (soleus muscle [3]; [7]) [μmol/g dry-wt muscle/h] | EC50 (soleus muscle [3]; absence of insulin) [nM] | EC50 (soleus muscle [3]; human insulin 23.7 nM) [nM] | muscle cAMP content (soleus muscle [1]; CGRP at both 5 nM and 100 nM, absence or presence of insulin (23.7 nM)) | cAMP content, agonist alone (soleus muscle [1]; normal fed, 100 nM CGRP or adrenaline, control 3.9±0.2) [pmol/mg] | cAMP increase with 1 pM CGRP (soleus muscle [1]; normal fed, 1 hr incubation)
1 | Rat amylin | dose-dependent increases of cAMP production | about 2 fold | no effect | 65.6±9.1 | 86.7 | 8 | 8.1 | 2.7±0.8 | 16.0±2.5 | 9.4 | 9.2 | – | – | –
2 | rat CGRP-1 | dose-dependent increases of cAMP production | – | – | 71.4±7.7 | 113±6.9 | 3.2 | 4.3 | 2.8±0.3 | 13.7±0.7 | 3.1 | 0.7 | significant increases in muscle cAMP content | 6.9 ± 0.8 | No significant cAMP increase
